Measurements from EP1858489B1, “METHODS AND COMPOSITIONS FOR MODIFIED RELEASE OF NUTRITIONAL SUPPLEMENTS” (Mannatech, Inc., priority 2005, dated 2006).
Where “and” joins values, the source holds several entries; their conditions need not be identical. Identical values can stand only once. Entries after “also recorded” stand apart in the source; their conditions may differ.

What was measured:
[1] = 37 °C at neutral pH; cited from earlier work
[2] = ORAC(o) assay: oxygen radical absorbance capacity by dissolved oxygen; format: biochemical; design: unit not given here; settings: quercetin sample at 10µg/mL
Procedure: Method of Measuring Antioxidant Activity. In operation, the ORAC(o) assay of the present invention was used to evaluate antioxidant compositions, combinations and the like of solutions against a target molecule (linoleic acid) with oxygen present at equilibrium with the air. A free radical initiator is added and the time it takes for oxygen to disappear is measured, yielding the rate of disappearance. Trolox® is used as the standard, and a blank is run as a control. Amount of dissolved oxygen vs. time is plotted allowing direct comparison of net areas under the curve. A detailed method is as follows: Buffers (K2HPO4 (F.W. 174.2), NaH2PO4 (FW 120.0)) were obtained from Sigma (St. Louis, MO). […] HPLC grade acetone was obtained from Fisher (Hampton, NH). A YSI […] biological oxygen meter was obtained from YSI (Yellow Springs, Ohio) and used according to the manufacturer's specifications. ORAC(o) Method. The following stock solutions were used. […] Weigh 65.33g into 500mL of volumetric flask, and add dH20 to the mark. Concentration is 750 mM. Store 750 mM K2HPO4 stock solution in a refrigerator (2 to 8°C) equipped with a calibrated thermometer. Target temperature is 4°C. 750mM NaH2PO4 (FW 120.0); Weigh 45.00 g into 500 mL of volumetric flask, and add dH20 to the mark. […] Keep covered at room temperature until ready to use. […]

[3] = ORAC(fl) assay (fluorescein, method of Ou et al.); format: biochemical; settings: mixed at different ratios with quercetin; standard acetone:water solution
Procedure: Prior Art Method of Measuring Antioxidant Activity for Comparison. For the ORAC(fl) assay, the method of Ou et al. (Ou , B., Hampsch-Woodill, M. and Prior, R.L., J. Agric. Food Chem. 2001, 49, 4619-4626) was followed. Differences from the Ou procedure as published included the speed of the orbital shaker (Ou, 400 rpm; herein, 280 rpm), and the centrifuge speed (Ou, 14,000 rpm, 15 min; herein, 3200 rpm, 15 min and the length of the assay (Ou, 30 min; herein, 100 min). Fluorescein, sodium salt, was obtained from Aldrich (Milwaukee, WI). For the Ou method, a standard amount of fluorescein is added to an antioxidant product being tested, and the beginning level of fluorescence is measured. A free radical initiator is added, and the time and degree of disappearance of fluorescence are measured. Trolox®, 6-Hydroxy-2,5,7,8-tetramethylchroman-2-carboxylic Acid, is a cell-permeable, water-soluble derivative of vitamin E with potent antioxidant properties. Trolox® prevents peroxynitrite-mediated oxidative stress and apoptosis in rat thymocytes and is a synthetic antioxidant that is consistent from lot-to-lot and is used as the standard and run for comparison with each sample. A blank (control) used in calculations of the ORAC(o) value for each samples may be included in each run. Fluorescence vs. time is plotted. The blank (control) is subtracted from every curve. […]

For `CC(C)(N=NC(C)(C)C(=N)N)C(=N)N.Cl.Cl` [AAPH, 2,2' azobis (2-amidinopropane) dihydrochloride], the half life [1] is given as “about 175 hours”.
With `O=c1c(O)c(-c2ccc(O)c(O)c2)oc2cc(O)cc(O)c12` [quercetin] the “Area Under Curve (AUC)” value ([2]; each day an average of 3 runs, 5 day precision trial) was 202.7 and 212.9 and 187 and 202.9 and 213.1 and the Area under curve ([2]; single runs of single day precision trial) was 207.4 and 198.2 and 205 and 201.6 and 202.1.
With `Cc1c(C)c2c(c(C)c1O)CC[C@@](C)(CCC[C@H](C)CCC[C@H](C)CCCC(C)C)O2` [α-tocopherol] the “contribution of α-tocopherol to AO activity” value [3] was “no contribution to AO activity; also recorded: no statistically significant activity”.
